The numbers were not newly measured in patent US6262080A, “3-(thio-substitutedamido)-lactams useful as inhibitors of matrix metalloproteinase” (Avantis Pharmaceuticals Inc., priority 1999, dated 2001), which cites them from elsewhere.

In this series the test system is B16-BL6 murine melanoma. The conditions noted are these: intraperitoneal administration; lung colonies produced by intravenous injection of B16-BL6 murine melanoma in C57BL/6N mice.

For the compound `CNC(=O)[C@H](Cc1ccccc1)NC(=O)[C@H](CC(C)C)[C@H](CSc1cccs1)C(=O)NO` [batimastat], the “growth and metastatic spread and number of lung colonies” value is recorded as “significant inhibition”.
